Experimental data published in US20040013649A1, “Cancer vaccines and methods of using the same” (Inex Pharmaceuticals Corporation, priority 2002, published 2004).
“Also recorded” adds a separate entry of the source. [5mC] = 5-methylcytosine

Tests used:
dendritic cells [1] = assay: in vivo dendritic cell activation (IFN-γ secreting cells); conditions: encapsulated in POPC:CHOL:DODMA:PEGDMG 20:45:25:10
Experimental: PBS was used as a control.
FIG. 3 clearly illustrates the ability of encapsulated ODN1m to activate dendritic cells. […] Dendritic cell activation was measured by the percentage of IFN-γ secreting cells. These cells were labeled with an antibody to indicate the cell type and only those having the dendritic cell marker were included in this measurement.

dendritic cells [2] = assay: expansion of dendritic cells (CD11c, DEC205) in spleen, blood and lymph nodes; format: in vivo, ICR mice; conditions: lipid encapsulated; single i.v. injection 20 mg/kg; versus PBS control = 100%; 20 mg/kg
Experimental: (§1) ICR mice were immunized with a single intravenous injection of encapsulated oligonucleotides at a dose of 20 mg/kg and the control ICR mouse was injected with PBS. […] Each of these markers are specific to dendritic cells though they may represent different cell sub-populations. In each of FIGS. 4 and 5 the control was plotted as equivalent to 100% and the effect of ODN1m for each backbone configuration was plotted as a percentage of that control.

dendritic cells [3] = assay: activation of dendritic cells (CD86 co-expression); format: in vivo, ICR mice; conditions: lipid encapsulated, single i.v. injection 20 mg/kg, versus PBS control = 100%
Experimental: as §1
On collection of the samples the cells were first analyzed by flow cytometry for the co-expression of CD86, which indicates cell activation, and the dendritic cell phenotype markers CD11c and DEC205. The percentage of activated dendritic cells was plotted against a PBS control equivalent to 100%. […] Similar results are shown when measuring DEC205 positive dendritic cells in FIG. 5 panels.

[4] = tested on: dendritic cells, NK cells, and CD8+ T-cells; assay: cytokine release assay after subcutaneous immunization; format: in vivo, C57BI/6 mice; conditions: lipid encapsulated; 100 μg ODN + 20 μg antigen s.c. q7d×3; FIGS. 10 and 11
Experimental: To monitor immunological response to subcutaneous immunization, antigen specific cellular immune responses were monitored using MHC Class.l-tetramer analyses, cytotoxicity assays and cytokine release assays while humoral immune responses were monitored by measuring plasma antibody levels. Cellular and humoral responses were assessed in C57BI/6 and Balb/C mice respectively (5 animals per group). For analysis of the cellular response, mice were immunized subcutaneously with 3 injections on a q7d×3 dosing regimen on Days 0, 7 and 14 at a dose of 100 μg oligonucleotide in combination with 20 μg of antigen . The spleen, liver, lymph node and blood tissues were collected on Day 21. Solid tissues were mechanically dissociated and cells were processed to collect mononuclear cells. […]
The aim of the cytokine release assay is to detect antigen-specific immune effector cells that are activated to produce and secrete cytokines, specifically IFN-γ, in response to stimulation with a specific antigen. Cells were isolated from the spleen, liver, blood and lymph nodes of immunized animals and analyzed using the Cytokine Secretion Assay (Miltenyi Biotec). […] Cells were then labeled with fluorescently labeled antibodies against IFN-γ and various phenotype markers and analyzed by flow cytometry to allow detection of specific cell types that were activated to secrete IFN-γ. […]

E.G7-OVA = assay: prophylactic efficacy of OVA / OVA257-264 vaccination, E.G7-OVA model; format: in vivo, C57/BL6 mice; conditions: LNA (encapsulated) forms; FIG. 35
Experimental: Vaccinations. B6 mice were vaccinated subcutaneously (SC) with […] per injection. Dosing schedules were either q7dx2 or q4dx4 and are indicated in the individual figure legends. CFA mixtures were very viscous and had to be given with a larger gauge syringe. For humoral studies, a prime (day 0) and boost (day 14) strategy was used and blood samples were collected at various times by tail nicking.
Efficacy studies. E.G7-OVA or EL-4 thymoma cell lines were used throughout the study. These cells were cultured in vitro according to established methods. For tumor studies, 2.5×106 E.G7-OVA cells were injected subcutaneously in […] of PBS containing 1% FCS. Tumor measurements were made by repeated perpendicular measurements of tumor dimensions and using the formula: […]
Full-length OVA and the immunodominant cytotoxic T lymphocyte (CTL) peptide epitope (OVA257-264) were used to evaluate cell mediated immune responses and the prophylactic and therapeutic efficacy of OVA vaccination against the E.G7-OVA transfected cell line, using LNA both as an adjuvant and as the basis for a cancer vaccine formulation. LNA formulations for this experiment were prepared using DSPC:Chol:DODAP:PEGCer14 at a ration of 25:45:20:10
The anti-tumor activity of OVA and OVA257-264 were examined against the murine thymoma cell line, E.G7-OVA, implanted subcutaneously (SC) in C57/BL6 mice. […] Given the activity observed with the protein or peptide alone, this dose and schedule represents a useful model to evaluate adjuvants designed to boost the immune response against OVA and/or OVA257-264.
To examine LNA formulations as adjuvants, the impact of three variables were evaluated on vaccination and efficacy in the prophylactic E.G7-OVA model: (1) the activity of free vs. encapsulated ODN 1, (2) phosphodiester (PO) vs phosphorothioate (PS) ODN, and (3) full-length OVA protein vs single-epitope peptide OVA257-264 (FIGS. 30A and B). In this set of studies, free and encapsulated ODN 1 was simply mixed with antigen and administered SC near the nape of the neck. ODN and antigen doses in these studies were […], respectively.

ODN1m: 5′-TAAZGTTGAGGGGCAT-3, SEQ ID NO: 4, Z = methylated cytosine (DNA TAACGTTGAGGGGCAT; DNA, [5mC] at 4, backbone not given here; tested with both phosphodiester and phosphorothioate backbones)
dendritic cell activation (percentage of IFN-γ secreting cells) (dendritic cells [1]): more active than its unmethylated counterpart; also recorded: more active than the unmethylated counterpart ODN1
expansion of CD11c positive dendritic cells (dendritic cells [2]): stimulated the expansion of CD11c positive dendritic cells in spleen cells and whole blood cells but not in lymphoid tissue; also recorded: stimulated the expansion of CD11c positive cells in spleen and whole blood
CD86 expression on dendritic cells (dendritic cells [3]): induced CD86 expression on CD11c positive dendritic cells; also recorded: more active than the unmethylated counterpart ODN1
immune stimulation (cytokine secretion of dendritic cells, NK cells, CD8+ T-cells), methylated normalized to unmethylated ODN [4]: consistently at least equivalent to, and often better than
efficacy of ODN sequences (E.G7-OVA): strongest responses
